Here are results for 25 molecules from patent US9073853B2, “Cycloalkane carboxylic acid derivatives as CXCR3 receptor antagonists” (Sanofi, priority 2011, dated 2015).

By IC50 is commonly meant the concentration that gives 50% inhibition.

Sequence of human CXCR3-A receptor (P49682 whole entry): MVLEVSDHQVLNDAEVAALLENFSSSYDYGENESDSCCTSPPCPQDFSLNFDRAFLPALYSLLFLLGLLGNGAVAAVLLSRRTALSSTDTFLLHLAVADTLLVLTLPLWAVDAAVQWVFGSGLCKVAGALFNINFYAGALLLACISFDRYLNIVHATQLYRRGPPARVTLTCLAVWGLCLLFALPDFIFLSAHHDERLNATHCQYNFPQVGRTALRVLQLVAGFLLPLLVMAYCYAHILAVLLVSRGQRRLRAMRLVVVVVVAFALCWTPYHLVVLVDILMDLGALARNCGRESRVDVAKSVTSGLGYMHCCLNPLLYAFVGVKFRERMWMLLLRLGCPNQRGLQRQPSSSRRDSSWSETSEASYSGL

The assay concerns the target human CXCR3-A receptor (Homo sapiens (Human), UniProt P49682). Put plainly: 125I-CXCL10 competition radioligand binding assay. The note with it: displacement of 125I-CXCL10 from membranes of CHO cells expressing human recombinant CXCR3-A. Put shortly:
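Membranes from a recombinant cell line expressing human CXCR3-A (10-20 μg protein) were incubated with 125I-CXCL10 and test compound for 60 min at 25° C, then filtered onto PEI-soaked GF/B filters and gamma-counted. IC50 and Hill slope came from four-parameter nonlinear fitting of competition curves.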
A general note: Loss of bound radioactivity is the signal in a displacement assay; it reports binding, not function.
For the molecule `O=C1CCC(=O)N1CCOc1ccc(CN(C[C@H]2CC[C@H](C(=O)O)CC2)[C@H]2CCc3cc(Cl)ccc32)cc1F` [Example 72, trans-4-[(((S)-5-Chloro-indan-1-yl)-{4-[2-(2,5-dioxo-pyrrolidin-1-yl)-ethoxy]-3-fluoro-benzyl}-amino)-methyl]-cyclohexanecarboxylic acid], the half-maximal inhibitory concentration (IC50) worked out at 825 nM.
The value for `C[C@@H](c1ccc(Cl)cc1)N(Cc1ccc(OCCN2C(=O)CCC2=O)c(F)c1)C[C@H]1CC[C@H](C(=O)O)CC1` [Example 73, trans-4-[([(S)-1-(4-Chloro-phenyl)-ethyl]-{4-[2-(2,5-dioxo-pyrrolidin-1-yl)-ethoxy]-3-fluoro-benzyl}-amino)-methyl]-cyclohexanecarboxylic acid] was 154 nM.
Next, `COc1cc(CN(C[C@H]2CC[C@H](C(=O)O)CC2)[C@H]2CCc3cc(Cl)c(Cl)cc32)ccc1OCCN1C(=O)CCC1=O` [Example 74, trans-4-[(((S)-5,6-Dichloro-indan-1-yl)-{4-[2-(2,5-dioxo-pyrrolidin-1-yl)-ethoxy]-3-methoxy-benzyl}-amino)-methyl]-cyclohexanecarboxylic acid]: 350 nM.
`CCc1cc(CN(C[C@H]2CC[C@H](C(=O)O)CC2)[C@@H](C)c2ccc(Cl)cc2)ccc1OCCN1C(=O)CCC1=O` [Example 75, trans-4-[([(S)-1-(4-Chloro-phenyl)-ethyl]-{4-[2-(2,5-dioxo-pyrrolidin-1-yl)-ethoxy]-3-ethyl-benzyl}-amino)-methyl]-cyclohexanecarboxylic acid]: the IC50 is 45 nM.
Next, `CCc1cc(CN(C[C@H]2CC[C@H](C(=O)O)CC2)C(C)c2ccc3c(c2)CCO3)ccc1OCCN1C(=O)CCC1=O` (stereo partly drawn) [Example 76, trans-4-[([1-(2,3-Dihydro-benzofuran-5-yl)-ethyl]-{4-[2-(2,5-dioxo-pyrrolidin-1-yl)-ethoxy]-3-ethyl-benzyl}-amino)-methyl]-cyclohexanecarboxylic acid]: 45 nM; `COc1cc(CN(C[C@H]2CC[C@H](C(=O)O)CC2)C(C)c2ccc(Cl)c(Cl)c2)ccc1OCCN1C(=O)CCC1=O` (stereo partly drawn) [Example 77, trans-4-[([1-(3,4-Dichloro-phenyl)-ethyl]-{4-[2-(2,5-dioxo-pyrrolidin-1-yl)-ethoxy]-3-methoxy-benzyl}-amino)-methyl]-cyclohexanecarboxylic acid]: 182 nM.
The value for `Cc1cc(CN(C[C@H]2CC[C@H](C(=O)O)CC2)C(C)c2ccc(Cl)c(Cl)c2)ccc1OCCN1C(=O)CCC1=O` (stereo partly drawn) [Example 78, trans-4-[([1-(3,4-Dichloro-phenyl)-ethyl]-{4-[2-(2,5-dioxo-pyrrolidin-1-yl)-ethoxy]-3-methyl-benzyl}-amino)-methyl]-cyclohexanecarboxylic acid] was 270 nM.
Next, `C[C@@H](c1ccc(Cl)cc1)N(Cc1ccc(OCCN2C(=O)CCC2=O)cc1)C[C@H]1CC[C@H](C(=O)O)CC1` [Example 79, trans-4-[([(S)-1-(4-Chloro-phenyl)-ethyl]-{4-[2-(2,5-dioxo-pyrrolidin-1-yl)-ethoxy]-benzyl}-amino)-methyl]-cyclohexanecarboxylic acid]: 154 nM.
On to `CCc1ccc(C(C)N(Cc2ccc(OCCN3C(=O)CCC3=O)c(OC)c2)C[C@H]2CC[C@H](C(=O)O)CC2)cc1` (stereo partly drawn) [Example 81, trans-4-({{4-[2-(2,5-Dioxo-pyrrolidin-1-yl)-ethoxy]-3-methoxy-benzyl}-[1-(4-ethyl-phenyl)-ethyl]-amino}-methyl)-cyclohexanecarboxylic acid], for which the IC50 was 245 nM.
Consider `COc1cc(CN(C[C@H]2CC[C@H](C(=O)O)CC2)C(C)c2ccc(Cl)c(F)c2)ccc1OCCN1C(=O)CCC1=O` (stereo partly drawn) [Example 82, trans-4-[([1-(4-Chloro-3-fluoro-phenyl)-ethyl]-{4-[2-(2,5-dioxo-pyrrolidin-1-yl)-ethoxy]-3-methoxy-benzyl}-amino)-methyl]-cyclohexanecarboxylic acid], for which the IC50 came out at 46 nM.
Next, `Cc1ccc(C(C)N(Cc2ccc(OCCN3C(=O)CCC3=O)c(C)c2)C[C@H]2CC[C@H](C(=O)O)CC2)cc1` (stereo partly drawn) [Example 83, trans-4-{[{4-[2-(2,5-Dioxo-pyrrolidin-1-yl)-ethoxy]-3-methyl-benzyl}-(1-p-tolyl-ethyl)-amino]-methyl}-cyclohexanecarboxylic acid]: 146 nM; `COc1cc(CN(C[C@H]2CC[C@H](C(=O)O)CC2)C(C)c2ccc(C)cc2)ccc1OCCN1C(=O)CCC1=O` (stereo partly drawn) [Example 84, trans-4-{[{4-[2-(2,5-Dioxo-pyrrolidin-1-yl)-ethoxy]-3-methoxy-benzyl}-(1-p-tolyl-ethyl)-amino]-methyl}-cyclohexanecarboxylic acid]: 107 nM.
As to `C[C@@H](c1ccc(Cl)cc1)N(Cc1ccc(OCCN2C(=O)CCC2=O)c(CO)c1)C[C@H]1CC[C@H](C(=O)O)CC1` [Example 85, trans-4-[([(S)-1-(4-Chloro-phenyl)-ethyl]-{4-[2-(2,5-dioxo-pyrrolidin-1-yl)-ethoxy]-3-hydroxymethyl-benzyl}-amino)-methyl]-cyclohexanecarboxylic acid], the IC50 was 71 nM.
Consider `CCc1cc(CN(C[C@H]2CC[C@H](C(=O)O)CC2)[C@H]2CCc3c2ccc(Cl)c3Cl)ccc1OCCN1C(=O)CCC1=O` [Example 86, trans-4-[(((S)-4,5-Dichloro-indan-1-yl)-{4-[2-(2,5-dioxo-pyrrolidin-1-yl)-ethoxy]-3-ethyl-benzyl}-amino)-methyl]-cyclohexanecarboxylic acid], for which the IC50 was 85 nM.
The value for `COc1cc(CN(C[C@H]2CC[C@H](C(=O)O)CC2)[C@@H](C)c2ccc(Cl)cc2)ccc1SCCN1C(=O)CCC1=O` [Example 87, trans-4-[([(S)-1-(4-Chloro-phenyl)-ethyl]-{4-[2-(2,5-dioxo-pyrrolidin-1-yl)-ethylsulfanyl]-3-methoxy-benzyl}-amino)-methyl]-cyclohexanecarboxylic acid] was 19 nM.
The value for `COc1cc(CN(C[C@H]2CC[C@H](C(=O)O)CC2)[C@H]2CCc3cc(Cl)ccc32)ccc1SCCN1C(=O)CCC1=O` [Example 88, trans-4-[(((S)-5-Chloro-indan-1-yl)-{4-[2-(2,5-dioxo-pyrrolidin-1-yl)-ethylsulfanyl]-3-methoxy-benzyl}-amino)-methyl]-cyclohexanecarboxylic acid] was 23 nM.
On to `CCc1cc(CN(C[C@H]2CC[C@H](C(=O)O)CC2)C(C)c2ccc(Cl)c(F)c2)ccc1OCCN1C(=O)CCC1=O` (stereo partly drawn) [Example 89, trans-4-[([1-(4-Chloro-3-fluoro-phenyl)-ethyl]-{4-[2-(2,5-dioxo-pyrrolidin-1-yl)-ethoxy]-3-ethyl-benzyl}-amino)-methyl]-cyclohexanecarboxylic acid], for which the IC50 stood at 52 nM.
In the case of `CCc1cc(CN(C[C@H]2CC[C@H](C(=O)O)CC2)[C@H](C)c2ccc(Cl)c(F)c2)ccc1OCCN1C(=O)CCC1=O` [Example 90, trans-4-[([(R)-1-(4-Chloro-3-fluoro-phenyl)-ethyl]-{4-[2-(2,5-dioxo-pyrrolidin-1-yl)-ethoxy]-3-ethyl-benzyl}-amino)-methyl]-cyclohexanecarboxylic acid], the IC50 was determined as 494 nM.
On to `CCc1cc(CN(C[C@H]2CC[C@H](C(=O)O)CC2)[C@@H](C)c2ccc(Cl)c(F)c2)ccc1OCCN1C(=O)CCC1=O` [Example 91, trans-4-[([(S)-1-(4-Chloro-3-fluoro-phenyl)-ethyl]-{4-[2-(2,5-dioxo-pyrrolidin-1-yl)-ethoxy]-3-ethyl-benzyl}-amino)-methyl]-cyclohexanecarboxylic acid], for which the IC50 is 121 nM.
With `CC(c1ccc(Cl)c(F)c1)N(Cc1ccc(OCCN2C(=O)CCC2=O)c(F)c1)C[C@H]1CC[C@H](C(=O)O)CC1` (stereo partly drawn) [Example 92, trans-4-[([1-(4-Chloro-3-fluoro-phenyl)-ethyl]-{4-[2-(2,5-dioxo-pyrrolidin-1-yl)-ethoxy]-3-fluoro-benzyl}-amino)-methyl]-cyclohexanecarboxylic acid], the IC50 was 220 nM.
Consider `COc1cc(CN(C[C@H]2CC[C@H](C(=O)O)CC2)C2CCc3c2ccc(F)c3Cl)ccc1OCCN1C(=O)CCC1=O` (stereo partly drawn) [Example 93, trans-4-[((4-Chloro-5-fluoro-indan-1-yl)-{4-[2-(2,5-dioxo-pyrrolidin-1-yl)-ethoxy]-3-methoxy-benzyl}-amino)-methyl]-cyclohexanecarboxylic acid], for which the half-maximal inhibitory concentration (IC50) amounted to 84 nM.
Regarding `COc1cc(CN(C[C@H]2CC[C@H](C(=O)O)CC2)C2CCc3cc(F)c(Cl)cc32)ccc1OCCN1C(=O)CCC1=O` (stereo partly drawn) [Example 94, trans-4-[((6-Chloro-5-fluoro-indan-1-yl)-{4-[2-(2,5-dioxo-pyrrolidin-1-yl)-ethoxy]-3-methoxy-benzyl}-amino)-methyl]-cyclohexanecarboxylic acid], the IC50 was 630 nM.
On to `CCc1cc(CN(C[C@H]2CC[C@H](C(=O)O)CC2)C2CCc3cc(F)c(Cl)cc32)ccc1OCCN1C(=O)CCC1=O` (stereo partly drawn) [Example 95, trans-4-[((6-Chloro-5-fluoro-indan-1-yl)-{4-[2-(2,5-dioxo-pyrrolidin-1-yl)-ethoxy]-3-ethyl-benzyl}-amino)-methyl]-cyclohexanecarboxylic acid], for which the IC50 is 4040 nM.
`CCc1cc(CN(C[C@H]2CC[C@H](C(=O)O)CC2)C2CCc3c2ccc(F)c3Cl)ccc1OCCN1C(=O)CCC1=O` (stereo partly drawn) [Example 96, trans-4-[((4-Chloro-5-fluoro-indan-1-yl)-{4-[2-(2,5-dioxo-pyrrolidin-1-yl)-ethoxy]-3-ethyl-benzyl}-amino)-methyl]-cyclohexanecarboxylic acid]: the IC50 amounted to 443 nM.
`O=C1CCC(=O)N1CCOc1ccc(CN(C[C@H]2CC[C@H](C(=O)O)CC2)C2CCc3cc(F)c(Cl)cc32)cc1F` (stereo partly drawn) [Example 97, trans-4-[((6-Chloro-5-fluoro-indan-1-yl)-{4-[2-(2,5-dioxo-pyrrolidin-1-yl)-ethoxy]-3-fluoro-benzyl}-amino)-methyl]-cyclohexanecarboxylic acid]: the 50% inhibitory concentration (IC50) was found to be 4640 nM.
